US20240336654A1, “ANTIMICROBIAL PEPTIDOMIMETICS” (SPEXIS AG, priority 2021, published 2024)
Where a SMILES comes first, the peptide text is derived from it. Bridges are numbered along the chain shown (N, C = ends). [ ]: non-standard residue; d: D form. Hyp = O=C(O)[C@@H]1C[C@@H](O)CN1; Cit = NC(=O)NCCC[C@H](N)C(=O)O; Agb = N=C(N)NCC[C@H](N)C(=O)O; Pen = CC(C)(S)[C@H](N)C(=O)O; dDab = NCC[C@@H](N)C(=O)O; Dab = NCC[C@H](N)C(=O)O

What was measured:
Format in all cases: cell-based
[1] = test system: human red blood cells (hRBC); details: red cells of human, 1 h, 200 μg/mL
Summary of the method: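 Peptides at 200 μg/mL incubated 1 h at 37 °C with 20% (v/v) washed human RBC, shaking. Hemolysis from supernatant OD540, expressed as percent of 2.5% Triton X-100 lysis, with PBS as 0%.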

[2] = test system: Escherichia coli ATCC 25922; details: ATCC 25922
Summary of the method: (§1)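 MICs were determined by CLSI broth microdilution in cation-adjusted Mueller-Hinton II broth with about 5×10^5 CFU/mL inoculum. Peptides were tested in two-fold serial dilutions with 0.002% polysorbate 80 final. MIC in μg/mL is the lowest concentration with no visible growth after 18-20 h at 35 °C.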

[3] = test system: Klebsiella pneumoniae SSI3010; details: SSI3010
Summary of the method: as §1

[4] = test system: Escherichia coli MCR-1 Af 45; details: MCR-1 Af 45
Summary of the method: as §1

## CC[C@H](C)[C@H](NC(=O)[C@@H]1C[C@@H](O)CN1C(=O)[C@@H](N)C(C)C)C(=O)N[C@@H]1C(=O)N[C@@H](Cc2ccc(O)cc2)C(=O)N[C@@H](CO)C(=O)N[C@@H](CC(=O)O)C(=O)N[C@@H](CCCNC(=N)N)C(=O)N[C@@H](CCN)C(=O)N[C@@H]([C@@H](C)O)C(=O)N[C@H](CCN)C(=O)N[C@@H](CCCCN)C(=O)N[C@@H](CCN)C(=O)N[C@@H](CCN)C(=O)N[C@H](C(=O)N[C@@H](Cc2ccc(O)cc2)C(=O)O)CSSC1(C)C [Example 23, Val-Hyp-Ile-Pen-Tyr-Ser-Asp-Arg-Dab-Thr-^DDab-Lys-Dab-Dab-Cys-Tyr] (H-V[Hyp]I[Pen]YSDR[Dab]T[dDab]K[Dab][Dab]CY-OH; disulfide 4-15; N-terminus assumed)
[1]
  Hemolysis at 0.2 g/L: <1%
[2]
  Escherichia coli ATCC 25922 MIC: 0.5 µg/mL
[3]
  Klebsiella pneumoniae SSI3010 MIC: 0.5 µg/mL
[4]
  Escherichia coli MCR-1 Af45 MIC: 0.25 µg/mL

## CC[C@H](C)[C@H](NC(=O)[C@@H]1C[C@@H](O)CN1C(=O)[C@@H](N)C(C)C)C(=O)N[C@@H]1C(=O)N[C@@H](Cc2ccc(O)cc2)C(=O)N[C@@H](CO)C(=O)N[C@@H](CO)C(=O)N[C@@H](CCCNC(=N)N)C(=O)N[C@@H](CCN)C(=O)N[C@@H]([C@@H](C)O)C(=O)N[C@H](CCN)C(=O)N[C@@H](CCCCN)C(=O)N[C@@H](CCN)C(=O)N[C@@H](CCN)C(=O)N[C@H](C(=O)N[C@@H](Cc2ccc(O)cc2)C(=O)O)CSSC1(C)C [Example 24, Val-Hyp-Ile-Pen-Tyr-Ser-Ser-Arg-Dab-Thr-^DDab-Lys-Dab-Dab-Cys-Tyr] (H-V[Hyp]I[Pen]YSSR[Dab]T[dDab]K[Dab][Dab]CY-OH; disulfide 4-15)
[1]
  Hemolysis at 0.2 g/L: <1%
[2]
  Escherichia coli ATCC 25922 MIC: 0.125 µg/mL
[3]
  Klebsiella pneumoniae SSI3010 MIC: 0.25 µg/mL
[4]
  Escherichia coli MCR-1 Af45 MIC: 0.125 µg/mL

## CC[C@H](C)[C@H](NC(=O)[C@@H]1C[C@@H](O)CN1C(=O)[C@@H](N)C(C)C)C(=O)N[C@@H]1C(=O)N[C@@H](Cc2ccc(O)cc2)C(=O)N[C@@H](CO)C(=O)N[C@@H](CC(N)=O)C(=O)N[C@@H](CCCNC(=N)N)C(=O)N[C@@H](C)C(=O)N[C@@H]([C@@H](C)O)C(=O)N[C@H](CCN)C(=O)N[C@@H](CCCCN)C(=O)N[C@@H](CCN)C(=O)N[C@@H](CCN)C(=O)N[C@H](C(=O)N[C@@H](Cc2ccc(O)cc2)C(=O)O)CSSC1(C)C [Example 25, Val-Hyp-Ile-Pen-Tyr-Ser-Asn-Arg-Ala-Thr-^DDab-Lys-Dab-Dab-Cys-Tyr] (H-V[Hyp]I[Pen]YSNRAT[dDab]K[Dab][Dab]CY-OH; disulfide 4-15)
[1]
  Hemolysis at 0.2 g/L: <1%
[2]
  Escherichia coli ATCC 25922 MIC: 0.5 µg/mL
[3]
  Klebsiella pneumoniae SSI3010 MIC: 1 µg/mL
[4]
  Escherichia coli MCR-1 Af45 MIC: 0.5 µg/mL

## CC[C@H](C)[C@H](NC(=O)[C@@H]1C[C@@H](O)CN1C(=O)[C@@H](N)C(C)C)C(=O)N[C@@H]1C(=O)N[C@@H](Cc2ccc(O)cc2)C(=O)N[C@@H](CO)C(=O)N[C@@H](CC(N)=O)C(=O)N[C@@H](CCCNC(=N)N)C(=O)N[C@H](CCN)C(=O)N[C@@H]([C@@H](C)O)C(=O)N[C@H](CCN)C(=O)N[C@@H](CCCCN)C(=O)N[C@@H](CCN)C(=O)N[C@@H](CCN)C(=O)N[C@H](C(=O)N[C@@H](Cc2ccc(O)cc2)C(=O)O)CSSC1(C)C [Example 26, Val-Hyp-Ile-Pen-Tyr-Ser-Asn-Arg-^DDab-Thr-^DDab-Lys-Dab-Dab-Cys-Tyr] (H-V[Hyp]I[Pen]YSNR[dDab]T[dDab]K[Dab][Dab]CY-OH; disulfide 4-15)
[1]
  Hemolysis at 0.2 g/L: <1%
[2]
  Escherichia coli ATCC 25922 MIC: 0.25 µg/mL
[3]
  Klebsiella pneumoniae SSI3010 MIC: 0.5 µg/mL
[4]
  Escherichia coli MCR-1 Af45 MIC: 0.125 µg/mL

## CC[C@H](C)[C@H](NC(=O)[C@@H]1C[C@@H](O)CN1C(=O)[C@@H](N)C(C)C)C(=O)N[C@@H]1C(=O)N[C@@H](Cc2ccc(O)cc2)C(=O)N[C@@H](CO)C(=O)N[C@@H](CC(N)=O)C(=O)N[C@@H](CCCNC(=N)N)C(=O)N[C@@H](CCCNC(N)=O)C(=O)N[C@@H]([C@@H](C)O)C(=O)N[C@H](CCN)C(=O)N[C@@H](CCCCN)C(=O)N[C@@H](CCN)C(=O)N[C@@H](CCN)C(=O)N[C@H](C(=O)N[C@@H](Cc2ccc(O)cc2)C(=O)O)CSSC1(C)C [Example 27, Val-Hyp-Ile-Pen-Tyr-Ser-Asn-Arg-Cit-Thr-^DDab-Lys-Dab-Dab-Cys-Tyr] (H-V[Hyp]I[Pen]YSNR[Cit]T[dDab]K[Dab][Dab]CY-OH; disulfide 4-15)
[1]
  Hemolysis at 0.2 g/L: <1%
[2]
  Escherichia coli ATCC 25922 MIC: 0.25 µg/mL
[3]
  Klebsiella pneumoniae SSI3010 MIC: 0.5 µg/mL
[4]
  Escherichia coli MCR-1 Af45 MIC: 0.25 µg/mL

## CC[C@H](C)[C@H](NC(=O)[C@@H]1C[C@@H](O)CN1C(=O)[C@@H](N)C(C)C)C(=O)N[C@@H]1C(=O)N[C@@H](Cc2ccc(O)cc2)C(=O)N[C@@H](CO)C(=O)N[C@@H](CC(N)=O)C(=O)N[C@@H](CCCNC(=N)N)C(=O)N[C@@H](CC(N)=O)C(=O)N[C@@H]([C@@H](C)O)C(=O)N[C@H](CCN)C(=O)N[C@@H](CCCCN)C(=O)N[C@@H](CCN)C(=O)N[C@@H](CCN)C(=O)N[C@H](C(=O)N[C@@H](Cc2ccc(O)cc2)C(=O)O)CSSC1(C)C [Example 28, Val-Hyp-Ile-Pen-Tyr-Ser-Asn-Arg-Asn-Thr-^DDab-Lys-Dab-Dab-Cys-Tyr] (H-V[Hyp]I[Pen]YSNRNT[dDab]K[Dab][Dab]CY-OH; disulfide 4-15)
[1]
  Hemolysis at 0.2 g/L: <1%
[2]
  Escherichia coli ATCC 25922 MIC: 0.25 µg/mL
[3]
  Klebsiella pneumoniae SSI3010 MIC: 0.5 µg/mL
[4]
  Escherichia coli MCR-1 Af45 MIC: 0.25 µg/mL

## CC[C@H](C)[C@H](NC(=O)[C@@H]1C[C@@H](O)CN1C(=O)[C@@H](N)C(C)C)C(=O)N[C@@H]1C(=O)N[C@@H](Cc2ccc(O)cc2)C(=O)N[C@@H](CO)C(=O)N[C@@H](CC(N)=O)C(=O)N[C@@H](CCCNC(=N)N)C(=O)N[C@@H](CO)C(=O)N[C@@H]([C@@H](C)O)C(=O)N[C@H](CCN)C(=O)N[C@@H](CCCCN)C(=O)N[C@@H](CCN)C(=O)N[C@@H](CCN)C(=O)N[C@H](C(=O)N[C@@H](Cc2ccc(O)cc2)C(=O)O)CSSC1(C)C [Example 29, Val-Hyp-Ile-Pen-Tyr-Ser-Asn-Arg-Ser-Thr-^DDab-Lys-Dab-Dab-Cys-Tyr] (H-V[Hyp]I[Pen]YSNRST[dDab]K[Dab][Dab]CY-OH; disulfide 4-15)
[1]
  Hemolysis at 0.2 g/L: <1%
[2]
  Escherichia coli ATCC 25922 MIC: 0.25 µg/mL
[3]
  Klebsiella pneumoniae SSI3010 MIC: 0.5 µg/mL
[4]
  Escherichia coli MCR-1 Af45 MIC: 0.125 µg/mL

## CC[C@H](C)[C@H](NC(=O)[C@@H]1C[C@@H](O)CN1C(=O)[C@@H](N)C(C)C)C(=O)N[C@@H]1C(=O)N[C@@H](Cc2ccc(O)cc2)C(=O)N[C@@H](CO)C(=O)N[C@@H](CC(N)=O)C(=O)N[C@@H](CCCNC(=N)N)C(=O)N[C@@H](CCNC(=N)N)C(=O)N[C@@H]([C@@H](C)O)C(=O)N[C@H](CCN)C(=O)N[C@@H](CCCCN)C(=O)N[C@@H](CCN)C(=O)N[C@@H](CCN)C(=O)N[C@H](C(=O)N[C@@H](Cc2ccc(O)cc2)C(=O)O)CSSC1(C)C [Example 30, Val-Hyp-Ile-Pen-Tyr-Ser-Asn-Arg-Agb-Thr-^DDab-Lys-Dab-Dab-Cys-Tyr] (H-V[Hyp]I[Pen]YSNR[Agb]T[dDab]K[Dab][Dab]CY-OH; disulfide 4-15)
[1]
  Hemolysis at 0.2 g/L: <1%
[2]
  Escherichia coli ATCC 25922 MIC: 0.125 µg/mL
[3]
  Klebsiella pneumoniae SSI3010 MIC: 0.125 µg/mL
[4]
  Escherichia coli MCR-1 Af45 MIC: 0.0625 µg/mL

## CC[C@H](C)[C@H](NC(=O)[C@@H]1C[C@@H](O)CN1C(=O)[C@@H](N)C(C)C)C(=O)N[C@@H]1C(=O)N[C@@H](Cc2ccc(O)cc2)C(=O)N[C@@H](CO)C(=O)N[C@@H](CC(N)=O)C(=O)N[C@@H](CCCNC(=N)N)C(=O)N[C@@H](CCN)C(=O)N[C@@H](CC(N)=O)C(=O)N[C@H](CCN)C(=O)N[C@@H](CCCCN)C(=O)N[C@@H](CCN)C(=O)N[C@@H](CCN)C(=O)N[C@H](C(=O)N[C@@H](Cc2ccc(O)cc2)C(=O)O)CSSC1(C)C [Example 31, Val-Hyp-Ile-Pen-Tyr-Ser-Asn-Arg-Dab-Asn-^DDab-Lys-Dab-Dab-Cys-Tyr] (H-V[Hyp]I[Pen]YSNR[Dab]N[dDab]K[Dab][Dab]CY-OH; disulfide 4-15)
[1]
  Hemolysis at 0.2 g/L: <1%
[2]
  Escherichia coli ATCC 25922 MIC: 0.125 µg/mL
[3]
  Klebsiella pneumoniae SSI3010 MIC: 0.25 µg/mL
[4]
  Escherichia coli MCR-1 Af45 MIC: 0.125 µg/mL

## CC[C@H](C)[C@H](NC(=O)[C@@H]1C[C@@H](O)CN1C(=O)[C@@H](N)C(C)C)C(=O)N[C@@H]1C(=O)N[C@@H](Cc2ccc(O)cc2)C(=O)N[C@@H](CCN)C(=O)N[C@@H](CC(N)=O)C(=O)N[C@@H](CCCNC(=N)N)C(=O)N[C@@H](CCN)C(=O)N[C@@H](CO)C(=O)N[C@H](CCN)C(=O)N[C@@H](CCCCN)C(=O)N[C@@H](CCN)C(=O)N[C@@H](CO)C(=O)N[C@H](C(=O)N[C@@H](Cc2ccc(O)cc2)C(=O)O)CSSC1(C)C [Example 32, Val-Hyp-Ile-Pen-Tyr-Dab-Asn-Arg-Dab-Ser-^DDab-Lys-Dab-Ser-Cys-Tyr] (H-V[Hyp]I[Pen]Y[Dab]NR[Dab]S[dDab]K[Dab]SCY-OH; disulfide 4-15)
[1]
  Hemolysis at 0.2 g/L: <1%
[2]
  Escherichia coli ATCC 25922 MIC: 1 µg/mL
[3]
  Klebsiella pneumoniae SSI3010 MIC: 0.5 µg/mL
[4]
  Escherichia coli MCR-1 Af45 MIC: 0.5 µg/mL

## CC[C@H](C)[C@H](NC(=O)[C@@H]1C[C@@H](O)CN1C(=O)[C@@H](N)C(C)C)C(=O)N[C@@H]1C(=O)N[C@@H](Cc2ccc(O)cc2)C(=O)N[C@@H](CO)C(=O)N[C@@H](CC(N)=O)C(=O)N[C@@H](CCCNC(=N)N)C(=O)N[C@@H](CCN)C(=O)N[C@@H](CO)C(=O)N[C@H](CCN)C(=O)N[C@@H](CCCCN)C(=O)N[C@@H](CCN)C(=O)N[C@@H](CCN)C(=O)N[C@H](C(=O)N[C@@H](Cc2ccc(O)cc2)C(=O)O)CSSC1(C)C [Example 33, Val-Hyp-Ile-Pen-Tyr-Ser-Asn-Arg-Dab-Ser-^DDab-Lys-Dab-Dab-Cys-Tyr] (H-V[Hyp]I[Pen]YSNR[Dab]S[dDab]K[Dab][Dab]CY-OH; disulfide 4-15)
[1]
  Hemolysis at 0.2 g/L: <1%
[2]
  Escherichia coli ATCC 25922 MIC: 0.125 µg/mL
[3]
  Klebsiella pneumoniae SSI3010 MIC: 0.125 µg/mL
[4]
  Escherichia coli MCR-1 Af45 MIC: 0.125 µg/mL
